Measured values: ChEMBL document CHEMBL1152407, “Identification of inhibitors of checkpoint kinase 1 through template screening” (J Med Chem, 2009)

Tests used:
[1] = biological target: T1, Serine/threonine-protein kinase Chk1 (Homo sapiens) (UniProt O14757); test: Inhibition of CHK1 at 250 uM by alphascreen assay
T1 sequence (whole entry): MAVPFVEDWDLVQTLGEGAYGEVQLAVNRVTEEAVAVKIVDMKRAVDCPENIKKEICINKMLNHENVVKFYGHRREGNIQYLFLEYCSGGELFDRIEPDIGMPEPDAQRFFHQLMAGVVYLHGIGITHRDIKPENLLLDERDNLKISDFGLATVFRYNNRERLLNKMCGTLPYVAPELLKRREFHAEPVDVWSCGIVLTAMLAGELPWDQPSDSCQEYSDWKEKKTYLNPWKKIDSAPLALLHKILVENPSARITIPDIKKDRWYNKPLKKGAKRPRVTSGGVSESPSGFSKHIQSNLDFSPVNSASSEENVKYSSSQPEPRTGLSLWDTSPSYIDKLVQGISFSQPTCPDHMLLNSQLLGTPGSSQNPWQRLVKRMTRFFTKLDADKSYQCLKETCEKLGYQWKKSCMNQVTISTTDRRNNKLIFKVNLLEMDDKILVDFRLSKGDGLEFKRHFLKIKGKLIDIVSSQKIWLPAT

[2] = biological target: T1, Serine/threonine-protein kinase Chk1 (Homo sapiens); test: Inhibition of CHK1 at 250 uM by alphascreen assay in presence of 0.01% Triton-X100
[3] = biological target: T1, Serine/threonine-protein kinase Chk1 (Homo sapiens); test: Inhibition of CHK1 assessed as CDC25C peptide phosphorylation at 100 uM by DELFIA assay
[4] = system: HT-29; test: cells; settings: Homo sapiens, HT-29, 96 h
Description: Cytotoxicity against human HT-29 cells after 96 hrs by SRB assay

[5] = biological target: Serine/threonine-protein kinase Chk2 (Homo sapiens, UniProt O96017)
Chain of Serine/threonine-protein kinase Chk2 (O96017 whole entry): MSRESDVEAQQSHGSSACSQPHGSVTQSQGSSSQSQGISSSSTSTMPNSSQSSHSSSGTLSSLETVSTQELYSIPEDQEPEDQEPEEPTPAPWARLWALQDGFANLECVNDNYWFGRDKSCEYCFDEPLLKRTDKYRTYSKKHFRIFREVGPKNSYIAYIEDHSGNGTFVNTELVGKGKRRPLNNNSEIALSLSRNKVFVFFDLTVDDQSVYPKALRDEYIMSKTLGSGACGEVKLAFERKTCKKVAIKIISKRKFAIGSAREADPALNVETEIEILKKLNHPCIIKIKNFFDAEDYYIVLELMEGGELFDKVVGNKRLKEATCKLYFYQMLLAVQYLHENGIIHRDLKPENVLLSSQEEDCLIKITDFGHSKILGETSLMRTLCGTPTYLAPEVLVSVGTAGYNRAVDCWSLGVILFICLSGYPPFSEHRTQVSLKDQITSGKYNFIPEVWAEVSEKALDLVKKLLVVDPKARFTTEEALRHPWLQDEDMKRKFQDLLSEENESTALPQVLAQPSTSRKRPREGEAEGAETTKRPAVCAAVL
Description: Inhibition of CHK2 assessed as CDC25C peptide phosphorylation by DELFIA assay

[6] = biological target: T2, Serine/threonine-protein kinase Chk1 (Homo sapiens, UniProt O14757)
T2 sequence (O14757 whole entry): T1 sequence (whole entry)
Description: Inhibition of CHK1 assessed as CDC25C peptide phosphorylation by DELFIA assay

[7] = Selectivity ratio of IC50 for CHK2 to IC50 for CHK1
[8] = biological target: Cyclin-dependent kinase 1 (Homo sapiens) (UniProt P06493); test: Inhibition of CDK1 assessed as Rb (ser780) biotinylated peptide phosphorylation at 100 uM by DELFIA assay
Chain of Cyclin-dependent kinase 1 (Homo sapiens) (P06493 whole entry, looked up): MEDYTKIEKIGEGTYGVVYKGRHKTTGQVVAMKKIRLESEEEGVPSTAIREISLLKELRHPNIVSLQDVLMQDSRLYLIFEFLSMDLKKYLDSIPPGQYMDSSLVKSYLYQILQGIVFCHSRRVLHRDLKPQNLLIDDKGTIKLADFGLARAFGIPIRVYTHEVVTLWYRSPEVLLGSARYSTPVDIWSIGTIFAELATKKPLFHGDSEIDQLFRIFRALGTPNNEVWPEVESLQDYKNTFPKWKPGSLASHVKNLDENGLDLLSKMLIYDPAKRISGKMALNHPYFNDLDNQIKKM

Row | SMILES | inhibition [1] [%] | inhibition [2] [%] | inhibition [3] [%] | also measured
1 | CCCNc1nc2ccccc2c(=O)[nH]1 | 40.9 | 14.2 | 0 | –
2 | CC(C)(C)OC(=O)NCC1CN(c2ncnc3[nH]cnc23)CCO1 (stereo not drawn) | – | – | 43 | –
3 | NCC1CN(c2c(-c3ccsc3)cnc3[nH]ncc23)CCO1 (stereo not drawn) | – | – | – | GI50 [4]: 10.5 µM; IC50 [5]: 4.6 µM; IC50 [6]: 0.29 µM; Ratio IC50 [7]: 8; inhibition [8]: 48%
4 | Fc1ccc(-c2onc3ccc(-c4cc[nH]n4)cc23)cc1 | 26.4 | 6.5 | – | –
5 | O=C(O)C1COCCN1c1ncnc2[nH]cnc12 (stereo not drawn) | – | – | 12 | –
6 | CC(C)(C)Nc1nc(N)c(C(=O)c2ccccc2)s1 | 36.9 | 39.9 | 33 | –
7 | CC(=O)Nc1nc2c(s1)C(=O)NCCC2 | 51.4 | 43.1 | 27 | –
8 | O=C(O)CC1CN(c2ncnc3[nH]cnc23)CCO1 (stereo not drawn) | – | – | 22 | –
9 | COc1cccc(CNc2ncnc3cc(OC)c(OC)cc23)c1 | 50.1 | 52.8 | – | –
10 | CCOC(=O)c1cnc2[nH]ncc2c1N1CCOC(CN)C1 (stereo not drawn) | – | – | – | inhibition [8]: 3%
11 | CSC1=N/C(=C\c2cccs2)C(=O)N1 | 35.7 | 33.5 | 32 | –
12 | NCC1CN(c2c(Br)cnc3[nH]ncc23)CCO1 (stereo not drawn) | – | – | – | GI50 [4]: 16 µM; IC50 [5]: 7.4 µM; Ratio IC50 [7]: 8; inhibition [8]: 37%
13 | Clc1ccc2c(Nc3ccccc3)ncnc2c1 | 41.9 | 41.5 | – | –
14 | O=c1[nH]cnc2sc3c(c12)CCCC3 | 38.5 | 45.3 | – | –
15 | NC[C@@H]1CN(c2c(-c3ccccc3)cnc3[nH]ncc23)CCO1 | – | – | – | GI50 [4]: 40 µM; IC50 [5]: 5.9 µM; inhibition [8]: 43%
16 | c1nc(N2CCOCC2)c2nc[nH]c2n1 | 75.7 | 63 | – | –
